Experiment: Solubility of Haloperidol in the hexPLA matrix
Assay type: physicochemical
Settings: depends on polymer molecular weight

O=C(CCCN1CCC(O)(c2ccc(Cl)cc2)CC1)c1ccc(F)cc1 [Haloperidol]
Solubility of Haloperidol in hexPLA matrix: dissolvable

Source: patent US9549985B2, “Compositions comprising polymers prepared from 2-hydroxyalkyl acids” (UNIVERSITE DE GENEVE, priority 2010, dated 2017)
